Test results from patent US6576268B2, “Biologically active fraction of vegetable melanin, process for its production and its use” (priority 1998, dated 2003).

Experiment: SOD-like activity and IC50, chemiluminometric method (PHOTOCHEM, set FAT Berlin)
Assay type: biochemical
Conditions: fytomelanin with 10^19 spin/g
Protocol: To determine the SOD-like activity a chemiluminometric method using the chemiluminometer PHOTOCHEM was used, where the set FAT, Berlin for the SOD activity was used for the determination. The measurements were performed with the measuring time of 3 minutes, and the area integral of the chemiluminiscent curve was recorded. The value was recalculated to the unit SOD activity (by weight), and it represents 0.2 of the SOD activity.

With “SOD: superoxide dismutase, molecular weight 32000, reference enzyme” the “-log IC50” value was 8.064 and the “% SOD activity” value (relative to SOD = 100) was 100.00%.
